# Target: T1, human DGKζ (Homo sapiens, UniProt Q13574)
# T1 construct: made in house; host or cells: Sf9 insect cells, baculovirus
# Experiment: Human DGKζ kinase activity inhibition assay (ADP-Glo)
# Assay type: biochemical
# Settings: example compounds; recombinant full-length human DGKζ, 1,2-dioleoyl-sn-glycerol 7 μM, ATP 55 μM, 20 min at 22° C.; read-out: IC50 values of examples in in vitro human DGKζ kinase activity inhibition assays
# Protocol: Human diacylglycerol kinase zeta (DGKζ) inhibitory activity of compounds of the present invention was quantified employing the human DGKζ kinase activity assay as described in the following paragraphs. In essence, the enzyme activity was measured by quantification of the adenosine-di-phosphate (ADP) generated as a co-product of the enzyme reaction via the “ADP-Glo™ Kinase Assay” kit from the company Promega. This detection system works as follows: In a first step the adenosine-tri-phosphate (ATP) not consumed in the kinase reaction is quantitatively converted to cyclic adenosine-mono-phosphate (cAMP) employing an adenylate cyclase (“ADP-Glo-reagent”), then the adenylate cyclase is stopped and the ADP generated in the kinase reaction is converted to ATP, which subsequently generates in a luciferase-based reaction a glow-luminescence signal (“Kinase Detection Reagent”).
# C-terminally FLAG-tagged, recombinant full-length human DGKζ (inhouse expressed in baculovirus infected insect cells, purified using anti-Flag pulldown and size exclusion chromatography) was used as enzyme. As an alternative, commercially available enzyme by Carnabio can be used. As substrate for the kinase, 1,2-dioleoyl-sn-glycerol, reconstituted in octyl-β-D-glucopyranoside micelles, was used. […] Subsequently, 22.55 volumes of a 510 mM solution of octyl-β-D-glucopyranoside (Sigma-Aldrich, Cat. #O8001-10G) in 50 mM MOPS buffer (pH 7.4) were added, and the mixture was sonicated in an ultrasonic bath for 20 s. Then 35 volumes of 50 mM MOPS buffer (pH 7.4) were added to yield a solution of 0.28 mM 1,2 dioleoyl-sn-glycerol and 200 mM octyl-β-D-glucopyranoside, which was aliquoted, flash-frozen in liquid nitrogen, and stored at −20° C. until use.
# For the assay 50 nl of a 100-fold concentrated solution of the test compound in dimethyl sulfoxide (DMSO, Sigma) was pipetted into either a white 1536-well or a white low-volume 384-well microtiter plate (both Greiner Bio-One, Frickenhausen, Germany). […] The concentration of DGKζ was adjusted depending of the activity of the enzyme lot and was chosen appropriate to have the assay in the linear range, a typical concentration is about 0.1 nM. The reaction was stopped by the addition of 2.5 μL of “ADP-Glo-reagent” (1 to 1.5 diluted with water) and the resulting mixture was incubated at 22° C. for 1 h to convert the ATP not consumed in the kinase reaction completely to cAMP. Subsequently 2.5 μl of the “kinase detection reagent” (1.2 fold more concentrated than recommended by the producer) were added, the resulting mixture was incubated at 22° C. for 1 h and then the luminescence measured with a suitable measurement instrument (e.g. Viewlux™ from Perkin-Elmer). The amount of emitted light was taken as a measure for the amount of ADP generated and thereby for the activity of the DGKζ.
# The data were normalised (enzyme reaction without inhibitor=0% inhibition, all other assay components but no enzyme=100% inhibition).
# T1 sequence (Q13574 with tags, fused parts or gaps): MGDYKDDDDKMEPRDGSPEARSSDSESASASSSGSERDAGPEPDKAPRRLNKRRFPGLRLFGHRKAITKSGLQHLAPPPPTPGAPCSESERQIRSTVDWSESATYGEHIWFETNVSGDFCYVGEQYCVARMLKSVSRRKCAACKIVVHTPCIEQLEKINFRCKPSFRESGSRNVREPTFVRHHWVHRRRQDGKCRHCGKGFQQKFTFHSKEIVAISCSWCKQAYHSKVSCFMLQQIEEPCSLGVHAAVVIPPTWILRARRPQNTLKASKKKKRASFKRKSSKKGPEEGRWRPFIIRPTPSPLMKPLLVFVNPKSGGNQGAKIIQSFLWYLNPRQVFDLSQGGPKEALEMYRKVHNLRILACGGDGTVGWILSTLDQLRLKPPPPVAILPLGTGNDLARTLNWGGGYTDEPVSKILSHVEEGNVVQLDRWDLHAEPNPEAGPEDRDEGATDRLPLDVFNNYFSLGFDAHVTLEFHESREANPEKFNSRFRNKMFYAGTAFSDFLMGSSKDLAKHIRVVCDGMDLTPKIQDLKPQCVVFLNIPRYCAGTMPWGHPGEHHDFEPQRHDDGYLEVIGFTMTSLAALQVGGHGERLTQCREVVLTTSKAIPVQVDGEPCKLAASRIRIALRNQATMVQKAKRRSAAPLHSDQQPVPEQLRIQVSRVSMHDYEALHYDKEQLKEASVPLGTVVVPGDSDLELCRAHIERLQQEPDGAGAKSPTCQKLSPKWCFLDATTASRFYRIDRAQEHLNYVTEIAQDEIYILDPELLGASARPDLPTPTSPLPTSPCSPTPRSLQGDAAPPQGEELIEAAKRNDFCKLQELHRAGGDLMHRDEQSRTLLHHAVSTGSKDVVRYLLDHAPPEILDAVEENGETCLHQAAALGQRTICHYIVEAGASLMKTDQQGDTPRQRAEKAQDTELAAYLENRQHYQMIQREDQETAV
row,IC50,Compound
1,420 nM,"CC(C(N)=O)N(c1ccc(F)cc1)c1nc(N)c(C(=O)c2cc(C(=O)Nc3ccncc3)no2)s1 (racemic) [Example 16, rac-5-[4-amino-2-(N-(2-amino-1-methyl-2-oxo-ethyl)-4-fluoro-anilino)thiazole-5-carbonyl]-N-(4-pyridyl)isoxazole-3-carboxamide]"
2,43 nM,"CC(C(N)=O)N(c1ccc(F)cc1)c1nc(N)c(C(=O)c2cc(C(=O)NC3CCCC3(C)C)no2)s1 (racemic) [Example 37, 5-[4-amino-2-(N-(2-amino-1-methyl-2-oxo-ethyl)-4-fluoro-anilino)thiazole-5-carbonyl]-N-(2,2-dimethylcyclopentyl)isoxazole-3-carboxamide]"
3,49 nM,"CC(C)Oc1cc(C(=O)c2sc(N(c3ccc(F)cc3)C(C)C(N)=O)nc2N)on1 (racemic) [Example 82, rac-2-(N-[4-amino-5-(3-isopropoxyisoxazole-5-carbonyl)thiazol-2-yl]-4-fluoro-anilino)propanamide]"
4,32 nM,"CC(C(N)=O)N(c1ccc(F)cc1)c1nc(N)c(C(=O)c2cc(COc3ccc(C#N)cc3)no2)s1 (racemic) [Example 64, rac-2-(N-[4-amino-5-[3-[(4-cyanophenoxy)methyl]isoxazole-5-carbonyl]thiazol-2-yl]-4-fluoro-anilino)propanamide]"
5,97 nM,"CC(C(N)=O)N(c1ccc(F)cc1)c1nc(N)c(C(=O)c2cc(C(=O)NCCOC(F)(F)F)no2)s1 (racemic) [Example 29, rac-5-[4-amino-2-(N-(2-amino-1-methyl-2-oxo-ethyl)-4-fluoro-anilino)thiazole-5-carbonyl]-N-[2-(trifluoromethoxy)ethyl]isoxazole-3-carboxamide]"
6,212 nM,"CC(C(N)=O)N(c1ccc(F)cc1)c1nc(N)c(C(=O)c2cc(C(=O)NCC(F)(F)F)no2)s1 (racemic) [Example 23, rac-5-[4-amino-2-(N-(2-amino-1-methyl-2-oxo-ethyl)-4-fluoro-anilino)thiazole-5-carbonyl]-N-(2,2,2-trifluoroethyl)isoxazole-3-carboxamide]"
7,12 nM,"CC(C(N)=O)N(c1ccc(F)cc1)c1nc(N)c(C(=O)c2nc(C3CCCC3)no2)s1 (racemic) [Example 59, rac-2-(N-[4-amino-5-(3-cyclopentyl-1,2,4-oxadiazole-5-carbonyl)thiazol-2-yl]-4-fluoro-anilino)propanamide]"
8,77 nM,"CC(C(N)=O)N(c1ccc(F)c(F)c1)c1nc(N)c(C(=O)c2cc(C(=O)NC3CCCC3)no2)s1 (racemic) [Example 46, rac-5-[4-amino-2-(N-(2-amino-1-methyl-2-oxo-ethyl)-3,4-difluoro-anilino)thiazole-5-carbonyl]-N-cyclopentyl-isoxazole-3-carboxamide]"
9,53 nM,"CC(C(N)=O)N(c1ccc(F)cc1)c1nc(N)c(C(=O)c2cc(C(=O)NC3(C)CCCC3)no2)s1 (racemic) [Example 39, rac-5-[4-amino-2-(N-(2-amino-1-methyl-2-oxo-ethyl)-4-fluoro-anilino)thiazole-5-carbonyl]-N-(1-methylcyclopentyl)isoxazole-3-carboxamide]"
10,407 nM,"CC(C(N)=O)N(c1ccc(F)cc1)c1nc(N)c(C(=O)c2cc(-c3cccnc3)no2)s1 (racemic) [Example 7, rac-2-(N-[4-amino-5-[3-(3-pyridyl)isoxazole-5-carbonyl]thiazol-2-yl]-4-fluoro-anilino)propanamide]"
11,58 nM,"CC(C(N)=O)N(c1ccc(F)cc1)c1nc(N)c(C(=O)c2cc(CN(C)C3CCCC3)no2)s1 (racemic) [Example 60, rac-2-(N-[4-amino-5-[3-[[cyclopentyl(methyl)amino]methyl]isoxazole-5-carbonyl]thiazol-2-yl]-4-fluoro-anilino)propanamide]"
12,27 nM,"CC(C(N)=O)N(c1ccc(F)c(F)c1)c1nc(N)c(C(=O)c2cc(C(=O)NC3CCCC3)no2)s1 (single isomer, unassigned) [Example 46.1, 5-[4-amino-2-(N-(2-amino-1-methyl-2-oxo-ethyl)-3,4-difluoro-anilino)thiazole-5-carbonyl]-N-cyclopentyl-isoxazole-3-carboxamide]"
13,293 nM,"CC(C(N)=O)N(c1ccc(F)cc1)c1nc(N)c(C(=O)c2cc(C(=O)NC3CCC3)no2)s1 (racemic) [Example 21, rac-5-[4-amino-2-(N-(2-amino-1-methyl-2-oxo-ethyl)-4-fluoro-anilino)thiazole-5-carbonyl]-N-cyclobutyl-isoxazole-3-carboxamide]"
14,325 nM,"CC(C(N)=O)N(c1ccc(F)cc1)c1nc(N)c(C(=O)c2cc(CN3CC(F)C3)no2)s1 (racemic) [Example 73, rac-2-(N-[4-amino-5-[3-[(3-fluoroazetidin-1-yl)methyl]isoxazole-5-carbonyl]thiazol-2-yl]-4-fluoro-anilino)propanamide]"
15,94 nM,"CC(C(N)=O)N(c1ccc(F)cc1)c1nc(N)c(C(=O)c2cc(C(=O)NC3CCC(C)(C)C3)no2)s1 (racemic) [Example 43, 5-[4-amino-2-(N-(2-amino-1-methyl-2-oxo-ethyl)-4-fluoro-anilino)thiazole-5-carbonyl]-N-(3,3-dimethylcyclopentyl)isoxazole-3-carboxamide]"
16,31 nM,"CC(C(N)=O)N(c1ccc(F)cc1)c1nc(N)c(C(=O)c2cc(C(=O)NC3CC(F)(F)C3)no2)s1 (single isomer, unassigned) [Example 32.1, 5-[4-amino-2-(N-(2-amino-1-methyl-2-oxo-ethyl)-4-fluoro-anilino)thiazole-5-carbonyl]-N-(3,3-difluorocyclobutyl)isoxazole-3-carboxamide]"
17,53 nM,"CC(C(N)=O)N(c1ccc(F)c(F)c1)c1nc(N)c(C(=O)c2cc(C(=O)NC3CC(F)(F)C3)no2)s1 (racemic) [Example 45, rac-5-[4-amino-2-(N-(2-amino-1-methyl-2-oxo-ethyl)-3,4-difluoro-anilino)thiazole-5-carbonyl]-N-(3,3-difluorocyclobutyl)isoxazole-3-carboxamide]"
18,897 nM,"CC(C(N)=O)N(c1ccc(F)cc1)c1nc(N)c(C(=O)c2cc(C(=O)NC3CC(F)(F)C3)no2)s1 (single isomer, unassigned) [Example 32.2, 5-[4-amino-2-(N-(2-amino-1-methyl-2-oxo-ethyl)-4-fluoro-anilino)thiazole-5-carbonyl]-N-(3,3-difluorocyclobutyl)isoxazole-3-carboxamide]"
19,3490 nM,"CC(C(N)=O)N(c1ccc(F)cc1)c1nc(N)c(C(=O)c2cc(Br)no2)s1 (single isomer, unassigned) [Example 6.2, 2-(N-[4-amino-5-(3-bromoisoxazole-5-carbonyl)thiazol-2-yl]-4-fluoro-anilino)propanamide]"
20,32 nM,"CC(C(N)=O)N(c1ccc(F)cc1)c1nc(N)c(C(=O)c2nc(C3CC3)no2)s1 (racemic) [Example 57, rac-2-(N-[4-amino-5-(3-cyclopropyl-1,2,4-oxadiazole-5-carbonyl)thiazol-2-yl]-4-fluoro-anilino)propanamide]"
21,109 nM,"CC(C(N)=O)N(c1ccc(F)cc1)c1nc(N)c(C(=O)c2cc(-c3ccccc3F)no2)s1 (racemic) [Example 67, rac-2-(N-[4-amino-5-[3-(2-fluorophenyl)isoxazole-5-carbonyl]thiazol-2-yl]-4-fluoro-anilino)propanamide]"

row,Compound,IC50
1,"CC(C(N)=O)N(c1ccc(F)cc1)c1nc(N)c(C(=O)c2cc(C(=O)NCCOC(C)(C)C)no2)s1 (racemic) [Example 26, rac-5-[4-amino-2-(N-(2-amino-1-methyl-2-oxo-ethyl)-4-fluoro-anilino)thiazole-5-carbonyl]-N-(2-tert-butoxyethyl)isoxazole-3-carboxamide]",138 nM

# Same assay, conditions: intermediates (comparative, lacking the R2 alkyl-carboxamide group); same assay conditions; read-out: IC50 values of intermediates in in vitro human DGKζ kinase activity inhibition assays
row,IC50,Compound
1,12000 nM,rac-5-[4-amino-2-(N-(2-amino-1-methyl-2-oxo-ethyl)-4-fluoro-anilino)thiazole-5-carbonyl]-N-(1-methylcyclobutyl)isoxazole-3-carboxamide [Example 30]
2,19400 nM,rac-5-[4-amino-2-(N-(2-amino-1-methyl-2-oxo-ethyl)-4-fluoro-anilino)thiazole-5-carbonyl]-N-(2-pyridyl)isoxazole-3-carboxamide [Example 28]

# Reference: patent publication US20230167103A1 (Bayer Aktiengesellschaft, priority 2020, published 2023)
